From article PMC7044277 (Nature Communications, 2020) come the findings set out here.

Each structure is given as a SMILES string. Several values for one entry are separate records, joined by “and”; a condition that tells them apart may be missing. Equal entries are not always repeated.

Common to all, as to type: cell-based
The target in assay [1] is T1, 320 non-olfactory GPCRs (Homo sapiens, UniProt P34995).
T1 construct: expressed in transfected cells; host or cells: HTLA cells
The following applies: receptor PTGER1; replicate values, Fig_4g.

For assay [2], the target named is T2, 320 non-olfactory GPCRs (Homo sapiens, UniProt P08588).
T2 construct: expressed in transfected cells; host or cells: HTLA cells
T2 sequence (P08588 whole entry): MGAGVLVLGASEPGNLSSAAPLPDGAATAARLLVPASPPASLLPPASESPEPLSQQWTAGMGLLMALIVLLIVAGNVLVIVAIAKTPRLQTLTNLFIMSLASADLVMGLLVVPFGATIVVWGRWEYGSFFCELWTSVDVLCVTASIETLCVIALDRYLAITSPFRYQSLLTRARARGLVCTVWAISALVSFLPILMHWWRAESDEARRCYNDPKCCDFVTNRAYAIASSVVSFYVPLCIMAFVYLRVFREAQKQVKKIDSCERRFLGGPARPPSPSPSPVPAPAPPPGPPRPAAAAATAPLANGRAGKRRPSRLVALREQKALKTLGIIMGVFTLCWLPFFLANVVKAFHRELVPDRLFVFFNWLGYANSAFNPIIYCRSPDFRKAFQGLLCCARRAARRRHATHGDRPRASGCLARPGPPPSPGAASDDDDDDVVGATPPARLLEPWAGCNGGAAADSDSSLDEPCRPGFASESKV

The target in assay [3] is T3, 320 non-olfactory GPCRs (Homo sapiens, UniProt Q96LB0).
T3 construct: expressed in transfected cells; host or cells: HTLA cells
T3 sequence (Q96LB0 whole entry): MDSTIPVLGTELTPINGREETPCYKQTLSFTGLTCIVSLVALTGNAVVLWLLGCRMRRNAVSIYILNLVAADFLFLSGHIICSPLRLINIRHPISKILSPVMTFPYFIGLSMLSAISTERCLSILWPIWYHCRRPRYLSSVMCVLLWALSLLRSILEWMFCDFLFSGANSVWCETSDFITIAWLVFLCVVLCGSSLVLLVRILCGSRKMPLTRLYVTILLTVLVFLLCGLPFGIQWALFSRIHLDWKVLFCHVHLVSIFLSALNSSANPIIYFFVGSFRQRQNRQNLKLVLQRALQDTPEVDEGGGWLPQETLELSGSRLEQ
The conditions noted are these: receptor MRGPRX3; replicate values, Fig_4g.

Assay [4] deals with 320 non-olfactory GPCRs (Homo sapiens, UniProt P30411).
320 non-olfactory GPCRs (Homo sapiens, UniProt P30411), sequence (P30411 whole entry): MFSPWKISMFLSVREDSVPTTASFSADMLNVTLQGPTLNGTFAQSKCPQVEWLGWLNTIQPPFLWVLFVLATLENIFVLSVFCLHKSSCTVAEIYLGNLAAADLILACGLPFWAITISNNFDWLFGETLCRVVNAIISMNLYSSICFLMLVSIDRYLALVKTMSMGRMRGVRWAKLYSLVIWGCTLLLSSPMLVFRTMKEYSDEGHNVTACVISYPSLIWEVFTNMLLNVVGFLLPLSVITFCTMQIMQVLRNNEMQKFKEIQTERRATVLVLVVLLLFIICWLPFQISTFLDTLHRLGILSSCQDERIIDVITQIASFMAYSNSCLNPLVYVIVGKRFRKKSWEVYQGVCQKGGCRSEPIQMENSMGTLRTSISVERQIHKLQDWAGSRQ
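Wherever Fold of Basal is given: compound tested at 1 µM final concentration.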
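Wherever GPCRome agonism screen response is given: fold over basal response of each receptor without drug.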

T1 sequence (P34995 whole entry): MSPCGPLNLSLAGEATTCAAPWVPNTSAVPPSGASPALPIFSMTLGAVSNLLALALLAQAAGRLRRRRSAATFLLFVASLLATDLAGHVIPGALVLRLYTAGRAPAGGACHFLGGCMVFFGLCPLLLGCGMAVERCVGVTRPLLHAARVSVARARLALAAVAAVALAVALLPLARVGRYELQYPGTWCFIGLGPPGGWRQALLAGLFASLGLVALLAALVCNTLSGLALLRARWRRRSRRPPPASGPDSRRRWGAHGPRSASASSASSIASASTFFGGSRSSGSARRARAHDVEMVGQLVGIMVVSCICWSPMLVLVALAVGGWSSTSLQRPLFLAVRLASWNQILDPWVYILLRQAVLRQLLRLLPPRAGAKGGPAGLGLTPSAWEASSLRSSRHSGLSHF

`CCOc1cccc2cc(C(C)NCC3(O)CCCCC3)oc12` (stereo not shown) [O4LE6]: the “GPCRome agonism screen response” value at 320 non-olfactory GPCRs [1] was 0.6283 and 0.5508 and 0.6804 and 0.7397; on 320 non-olfactory GPCRs [3], 0.501 and 0.6269 and 0.3987 and 0.4556. The “Fold of Basal” value on 320 non-olfactory GPCRs [2] was 0.9495 and 0.9531 and 1.111 and 0.8261; on 320 non-olfactory GPCRs [4], 1.112 and 0.7321 and 0.9055 and 1.0914.
